Values after ≈ are worked out from the molar mass of the structure shown.
What was measured:
C. albicans ATCC 90029 [1] = experiment: Anti-biofilm activity assay, purple violet microtiter method; assay type: cell-based, Candida albicans; conditions: C. albicans ATCC 90029 biofilm
Experimental: (§1) The inhibitory activity of the obtained compounds has been assessed on five microbial strains, respectively: E. coli ATCC 25922, P. aeruginosa ATCC 27853, S. aureus ATCC 25923, E. faecalis ATCC 29212 and C. albicans ATCC 90029, in a planktonic and adherent growth state.
(§2) The anti-biofilm activity assay was performed by the purple violet microtiter method, as previously described, allowing us to determine the minimal biofilm inhibitory concentration (MBEC). The same range of concentrations, as in the MIC assay, i.e., from 5 to 0.009 mg/mL has been tested.

S. aureus ATCC 25923 [2] = experiment: Flow cytometry (FCM) membrane depolarization, DiBAC4(3); assay type: cell-based, Staphylococcus aureus; conditions: for staining index value (SI): S. aureus ATCC 25923, DiBAC4, 18–24 h
Experimental: (§3) The investigation of potential mechanisms of antimicrobial action by flow cytometry (FCM) was performed on microbial cultures obtained after 18–24 h of microbial cell incubation in the presence of subinhibitory concentrations of the analyzed compounds. Thus, microbial suspensions with a density of approximately 10^6 CFU/mL were prepared in sterile saline phosphate buffer from exponentially growing microbial cultures, obtained on a solid culture medium. Subinhibitory concentrations of the compounds were prepared in Muller–Hinton liquid culture medium and inoculated with an equal amount of microbial suspension and incubated for 18–24 h at 37 °C.
(§4) Microbial suspensions inoculated in a liquid medium were used as growth control. After incubation, the DiBAC4 fluorochrome solution [bis-(1,3-dibutylbarbituric acid) trimethinoxonol] Invitrogen/Life Technologies, Carlsbad, was added (0.5 μg/mL).
(§5) Fluorescence intensity (FI) was measured with an Accuri C6 plus flow cytometer in the FITC fluorescence channel. Growth control was used to locate the microbial cell population for fluorescence measurements. DiBAC4 dye was used to detect changes in the microbial membrane potential. […] A twofold increased fluorescence intensity (median fluorescence intensity = MFI) was considered to correspond to the depolarized microbial cells. For each subinhibitory concentration, a coloring index (CI) was calculated which represents the ratio of fluorescence intensity (FI) of treated versus untreated cells.

P. aeruginosa ATCC 27892 = experiment: as above; assay type: cell-based, Pseudomonas aeruginosa; conditions: subinhibitory concentration tested 2.5 mg/mL, DiBAC4, 18–24 h
Experimental: as §3, §4, §5

[3] = In vitro cytotoxicity assay, IncuCyte S3 live-cell analysis; assay type: cell-based; conditions: human, 72-h period
Experimental: The cytotoxicity of the investigated compounds was tested using the IncuCyte Basic Analysiskit, allowing to calculate the IC50, against three tumoral cell lines, i.e., HeLa (cervical cancer cells), HT29 (colon adenocarcinoma) and MG63 (osteosarcoma). The selected metric of the concentration-response module was set on phase and confluence (%).
In our experiments, we used colorectal adenocarcinoma HT29 (ATCC HTB-38), cervical adenocarcinoma cells HeLa (ATCC CRM-CCL2), and osteosarcoma MG63 (ATCC CRL-1427). The cells were maintained in Dulbeco’s Modified Medium (DMEM): F12 (Thermo Fisher Scientific, Waltham, MA, USA) supplemented with 10% fetal bovine serum (FBS, Thermo Fisher Scientific, Waltham, MA, USA). For the in vitro evaluation of their cytotoxicity, the new derivatives were solubilized in DMSO at a concentration of 10 mg/mL and filtered with 0.22 µm Millex-GV Filter (Merck, Darmstadt, Germany). For cytotoxicity kinetics, the IncuCyte® S3 Live-Cell Analysis System (Sartorius, AG, Goettingen, Germany) was used. Briefly, 2 × 10^4 cells seeded in 96 well plates were treated with the new derivatives in a concentration ranging between 500 μg/mL and 3.9 μg/mL. The plates were placed in the IncuCyte® S3 Live-Cell Analysis System, and five images per well were taken every six h over a 72-h period and then processed, according to kit recommendations.

E. faecalis ATCC 29212 = experiment: MBC assay, plating on solid medium after MIC reading; assay type: cell-based; conditions: Enterococcus faecalis, ATCC29212, read-out: minimum bactericidal concentration (MBC)
Experimental: as §1
(§6) The MB assay was performed after reading the MIC values.

S. aureus ATCC 25923 [4] = experiment: as above; assay type: cell-based; conditions: Staphylococcus aureus, ATCC25923, read-out: minimum bactericidal concentration (MBC)
Experimental: as §1, §6

P. aeruginosa ATCC 27853 = experiment: as above; assay type: cell-based; conditions: Pseudomonas aeruginosa, ATCC27853, read-out: minimum bactericidal concentration (MBC)
Experimental: as §1, §6

C. albicans ATCC 90029 [5] = experiment: as above; assay type: cell-based; conditions: Candida albicans, ATCC90029, read-out: minimum bactericidal concentration (MBC)
Experimental: as §1, §6

E. coli ATCC 25922 [6] = experiment: as above; assay type: cell-based; conditions: Escherichia coli, ATCC25922, read-out: minimum bactericidal concentration (MBC)
Experimental: as §1, §6

[7] = Scavenger activity towards DPPH free radical; assay type: biochemical; conditions: 30 min; for IC50: linear regression over 25–1000 μM, mean ± SD of three, read-out: IC50 by means of DPPH assay
Experimental: The DPPH (Sigma-Aldrich, Darmstadt, Germany) solution of 0.1 mM concentration was obtained by dissolving 0.0039 g of free radical in 100 mL ethanol, in a volumetric flask. For all determinations, the DPPH solution was freshly prepared and kept in the dark. Ethanol has been chosen since tested compounds were dissolved in ethanol: DMSO = 99:1 (v/v) mixture.
The analyzed compounds were dissolved in 25 mL of ethanol: DMSO = 99:1 (v/v) mixture in a final concentration of 1000 μM (stock solution), from which several concentrations of 25 μM, 50 μM, 75 μM, 100 μM, 250 μM and 500 μM were obtained by successive dilutions.
The determination of the antioxidant activity was based on the Ohnishi M et al. method, quoted by Germano M.P. et al..
[…] The samples were kept at rest in the dark for 30 min [79, 81]. Ethanol was used as a blank in order to measure the absorbance at 515 nm (Jasco V-530 spectrophotometer, Jasco, Japan).
The following formula was used to determine DPPH free radical scavenger activity (%): Inhibition %=Acontrol−Asample/Acontrol×100 where, A = absorbance of the 0.1 mM DPPH solution in the absence (control)/presence (sample) of tested compounds after 30 min.
For both the above-mentioned methods, the antioxidant activity was expressed as IC50 values (μM) which represent the concentration of each compound for which the scavenging activity of free radicals is 50%. […]

E. coli ATCC 25922 [8] = experiment: Flow cytometry (FCM) membrane depolarization, DiBAC4(3); assay type: cell-based, Escherichia coli; conditions: DiBAC4, 18–24 h
Experimental: as §3, §4, §5

E. coli ATCC 25922 [9] = experiment: Anti-biofilm activity assay, purple violet microtiter method; assay type: cell-based, Escherichia coli; conditions: E. coli ATCC 25922 biofilm
Experimental: as §1, §2

[10] = subinhibitory concentration tested 2.5 mg/mL
[11] = HT29 cells (colorectal adenocarcinoma), HT29, phase confluence (%)
[12] = HeLa cells (cervical adenocarcinoma), phase confluence (%)
[13] = MG63 cells (osteosarcoma), MG63, phase confluence (%)
[14] = subinhibitory concentration tested 1.25 mg/mL

| Structure (SMILES) | minimum biofilm inhibitory concentration (MBIC) (C. albicans ATCC 90029 [1]) [mg/mL] | staining index value (SI) (S. aureus ATCC 25923 [2]; [10]) | staining index value (SI) (P. aeruginosa ATCC 27892) | IC50 at 72 h [3, 11] [µg/mL] | IC50 at 72 h [3, 12] [µg/mL] | IC50 at 72 h [3, 13] [µg/mL] | MBC (E. faecalis ATCC 29212) [µg/mL] | MBC (S. aureus ATCC 25923 [4]) [µg/mL] | MBC (P. aeruginosa ATCC 27853) [µg/mL] | MBC (C. albicans ATCC 90029 [5]) [µg/mL] | MBC (E. coli ATCC 25922 [6]) [µg/mL] | DPPH free radical scavenger capacity ([7]; at 25 μM) [%] | DPPH free radical scavenger capacity ([7]; at 1000 μM) [%] | IC50 [7] [mM] | staining index value (SI) (E. coli ATCC 25922 [8]; [14]) | minimum biofilm inhibitory concentration (MBIC) (E. coli ATCC 25922 [9]) [mg/mL] | staining index value (SI) (E. coli ATCC 25922 [8]; [10]) | changes in the membrane potential (S. aureus ATCC 25923 [2]; S. aureus ATCC 25923, subinhibitory concentration) | staining index value (SI) (S. aureus ATCC 25923 [2]; [14]) |
| --- | --- | --- | --- | --- | --- | --- | --- | --- | --- | --- | --- | --- | --- | --- | --- | --- | --- | --- | --- |
| O=C(Nc1ccccc1)ON=C1c2ccccc2-c2ccccc21 [Compound 1a, 9-(phenylcarbamoyloxymino)fluoren] | 0.312 | 3.5 | 6.68 | 11 ± 0.75 (≈ 0.035 mM) | 7.52 ± 1.39 (≈ 0.0239 mM) | 31.5 (≈ 0.1 mM) | 5000 (≈ 15.9 mM) | 5000 (≈ 15.9 mM) | 2500 (≈ 7.95 mM) | 5000 (≈ 15.9 mM) | 2500 (≈ 7.95 mM) | 12.66 | 19.81 | 5.7352 ± 8.28e-05 | 80.7 | 0.625 |  |  |  |
| Cc1cccc(NC(=O)ON=C2c3ccccc3-c3ccccc32)c1 [Compound 1b, 9-((3-methyl-phenyl)carbamoyloximino)fluoren] | 0.078 | 8.17 | 6.5 | 6.33 ± 3.02 (≈ 0.0193 mM) | 8.5 ± 2.26 (≈ 0.0259 mM) | 22 ± 2.48 (≈ 0.067 mM) | 10000 (≈ 30.5 mM) | 5000 (≈ 15.2 mM) | 2500 (≈ 7.61 mM) | 10000 (≈ 30.5 mM) | 5000 (≈ 15.2 mM) |  | 16.29 | 12.263 ± 5.74e-05 |  | 0.078 | 10.2 |  |  |
| O=C(Nc1cccc(Cl)c1)ON=C1c2ccccc2-c2ccccc21 [Compound 1c, 9-((3-chloro-phenyl)carbamoyloxymino)fluoren] | 0.312 | 0.19 | 2.38 | 10.8 ± 1.36 (≈ 0.031 mM) | 8.9 ± 2.56 (≈ 0.0255 mM) | 22.8 ± 0.78 (≈ 0.0654 mM) | 5000 (≈ 14.3 mM) | 5000 (≈ 14.3 mM) | 2500 (≈ 7.17 mM) | 10000 (≈ 28.7 mM) | 5000 (≈ 14.3 mM) |  | 24.64 | 5.208 ± 0.000124 | 3.2 | 1.25 |  | did not cause changes |  |
| O=C(Nc1ccc(Cl)c(Cl)c1)ON=C1c2ccccc2-c2ccccc21 [Compound 1d, 9-((3,4-dichloro-phenyl)carbamoyloxymino)fluoren] | 0.312 |  | 20.45 | 8.17 ± 2.98 (≈ 0.0213 mM) | 7.59 ± 3.64 (≈ 0.0198 mM) | 26.3 ± 0.92 (≈ 0.0686 mM) | 5000 (≈ 13 mM) | 312 (≈ 0.814 mM) | 2500 (≈ 6.52 mM) | 10000 (≈ 26.1 mM) | 5000 (≈ 13 mM) |  |  |  | 173.3 | 0.625 |  |  | 4.2 |
